Test results: patent US12077503B2, “Substituted cyclic amides and their use as herbicides” (FMC CORPORATION, priority 2015, dated 2024)
Read-outs that look alike come from different tables or passages of the source.

Experiments:
Type in all cases: in vivo
rice (Oryra sativa) = assay: Test B flooded paddy test; conditions: Oryza sativa, 250 g ai/ha, Flood; 0 to 100 scale where 0 is no effect and 100 is complete control; read-out: Rice plant response rating
Summary of the method: (§1)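 Evaluation by eye, against controls, occurred 13–15 d post-treatment in a greenhouse, using a 0 (no effect) to 100 (complete control) scale. Application was into the paddy water, 3 cm deep over the soil, on 2-leaf plants.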

[1] = tested on: barnyardgrass (Echinochloa crus-galli); assay: Test B flooded paddy test; conditions: Echinochloa crus-galli, 250 g ai/ha, Flood; 0 to 100 scale where 0 is no effect and 100 is complete control; read-out: Barnyardgrass plant response rating
Summary of the method: as §1

[2] = tested on: sedge, umbrella (small-flower umbrella sedge, Cyperus difformis); assay: Test B flooded paddy test; conditions: Cyperus difformis, 250 g ai/ha, Flood; 0 to 100 scale where 0 is no effect and 100 is complete control; read-out: Sedge, Umbrella plant response rating
Summary of the method: as §1

[3] = tested on: ducksalad (Heteranthera limosa); assay: Test B flooded paddy test; conditions: Heteranthera limosa, 250 g ai/ha, Flood; 0 to 100 scale where 0 is no effect and 100 is complete control; read-out: Ducksalad plant response rating
Summary of the method: as §1

[4] = tested on: ryegrass, Italian (Italian ryegrass, Lolium multiflorum); assay: Test A preemergence; conditions: Lolium multiflorum, pre-emergence, 240 h; for pest or weed control at 125 g/ha: 125 g ai/ha, Preemergence, visual injury rating after approximately 10 d, read-out: Ryegrass, Italian plant response rating (0 to 100 scale, 0 is no effect, 100 is complete control); for pest or weed control at 500 g/ha: 500 g ai/ha, preemergence, visual injury rating about 10 d after treatment, 0 to 100 scale (0 no effect, 100 complete control), read-out: Ryegrass, Italian plant response rating
Summary of the method: (§2)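 Greenhouse, ~10 d after spray; visual injury vs untreated controls, 0 = no effect, 100 = complete control. Preemergence: directed soil spray over planted seeds. Postemergence: plants 2–10 cm, 1–2 leaf stage. Loam/sand blend. Compound in non-phytotoxic solvent with surfactant.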

[5] = tested on: barnyardgrass (Echinochloa crus-galli); assay: Test A preemergence; conditions: Echinochloa crus-galli, pre-emergence, 240 h; for pest or weed control at 125 g/ha: 125 g ai/ha, Preemergence, visual injury rating after approximately 10 d, read-out: Barnyardgrass plant response rating (0 to 100 scale, 0 is no effect, 100 is complete control); for pest or weed control at 500 g/ha: 500 g ai/ha, preemergence, visual injury rating about 10 d after treatment, 0 to 100 scale (0 no effect, 100 complete control), read-out: Barnyardgrass plant response rating
Summary of the method: as §2

Kochia (Kochia scoparia) = assay: Test A preemergence; conditions: Bassia scoparia, pre-emergence, 240 h; for pest or weed control at 125 g/ha: 125 g ai/ha, Preemergence, visual injury rating after approximately 10 d, read-out: Kochia plant response rating (0 to 100 scale, 0 is no effect, 100 is complete control); for pest or weed control at 500 g/ha: 500 g ai/ha, preemergence, visual injury rating about 10 d after treatment, 0 to 100 scale (0 no effect, 100 complete control), read-out: Kochia plant response rating
Summary of the method: as §2

[6] = tested on: pigweed (Amaranthus retroflexus); assay: Test A preemergence; conditions: Amaranthus retroflexus, pre-emergence, 240 h; for pest or weed control at 125 g/ha: 125 g ai/ha, Preemergence, visual injury rating after approximately 10 d, read-out: Pigweed plant response rating (0 to 100 scale, 0 is no effect, 100 is complete control); for pest or weed control at 500 g/ha: 500 g ai/ha, preemergence, visual injury rating about 10 d after treatment, 0 to 100 scale (0 no effect, 100 complete control), read-out: Pigweed plant response rating
[7] = tested on: giant foxtail (Setaria faberii); assay: Test A preemergence; conditions: Setaria faberi, pre-emergence, 240 h; for pest or weed control at 125 g/ha: 125 g ai/ha, Preemergence, visual injury rating after approximately 10 d, read-out: Foxtail, Giant plant response rating (0 to 100 scale, 0 is no effect, 100 is complete control); for pest or weed control at 500 g/ha: 500 g ai/ha, preemergence, visual injury rating about 10 d after treatment, 0 to 100 scale (0 no effect, 100 complete control), read-out: Foxtail, Giant plant response rating
Summary of the method: as §2

[8] = tested on: ragweed (common ragweed, Ambrosia elatior); assay: Test A preemergence; conditions: Ambrosia artemisiifolia, pre-emergence, 240 h; for pest or weed control at 125 g/ha: 125 g ai/ha, Preemergence, visual injury rating after approximately 10 d, read-out: Ragweed plant response rating (0 to 100 scale, 0 is no effect, 100 is complete control); for pest or weed control at 500 g/ha: 500 g ai/ha, preemergence, visual injury rating about 10 d after treatment, 0 to 100 scale (0 no effect, 100 complete control), read-out: Ragweed plant response rating
Summary of the method: as §2

[9] = tested on: ryegrass, Italian (Italian ryegrass, Lolium multiflorum); assay: Test A postemergence; conditions: Lolium multiflorum, post-emergence, 240 h; for pest or weed control at 125 g/ha: 125 g ai/ha; for pest or weed control at 500 g/ha: 500 g ai/ha, visual injury, 0 to 100 scale (0 no effect, 100 complete control)
Summary of the method: as §2

[10] = tested on: wheat (Triticum aestivum); assay: Test A postemergence; conditions: Triticum aestivum, post-emergence, 240 h; for plant injury at 125 g/ha: 125 g ai/ha; for plant injury at 500 g/ha: 500 g ai/ha, visual injury, 0 to 100 scale (0 no effect, 100 complete control)
Summary of the method: as §2

[11] = tested on: giant foxtail (Setaria faberii); assay: Test A postemergence; conditions: Setaria faberi, post-emergence, 240 h; for pest or weed control at 125 g/ha: 125 g ai/ha; for pest or weed control at 500 g/ha: 500 g ai/ha, visual injury, 0 to 100 scale (0 no effect, 100 complete control)
Summary of the method: as §2

[12] = tested on: ragweed (common ragweed, Ambrosia elatior); assay: Test A postemergence; conditions: Ambrosia artemisiifolia, post-emergence, 240 h; for pest or weed control at 125 g/ha: 125 g ai/ha; for pest or weed control at 500 g/ha: 500 g ai/ha, visual injury, 0 to 100 scale (0 no effect, 100 complete control)
Summary of the method: as §2

[13] = Postemergence, visual injury after approximately 10 d, 0 to 100 scale where 0 is no effect and 100 is complete control, read-out: Plant response rating, Ryegrass, Italian
[14] = postemergence, approx. 10 d, read-out: Plant response rating, Ryegrass, Italian
[15] = Postemergence, visual injury after approximately 10 d, 0 to 100 scale where 0 is no effect and 100 is complete control, read-out: Plant response rating, Wheat
[16] = postemergence, approx. 10 d, read-out: Plant response rating, Wheat
[17] = Postemergence, visual injury after approximately 10 d, 0 to 100 scale where 0 is no effect and 100 is complete control, read-out: Plant response rating, Foxtail, Giant
[18] = postemergence, approx. 10 d, read-out: Plant response rating, Foxtail, Giant
[19] = Postemergence, visual injury after approximately 10 d, 0 to 100 scale where 0 is no effect and 100 is complete control, read-out: Plant response rating, Ragweed
[20] = postemergence, approx. 10 d, read-out: Plant response rating, Ragweed
[21] = postemergence, visual injury on 0 to 100 scale (0 no effect, 100 complete control), approx. 10 d, read-out: Ryegrass, Italian plant response rating
[22] = postemergence, visual injury on 0 to 100 scale (0 no effect, 100 complete control), approx. 10 d, read-out: Wheat plant response rating
[23] = postemergence, visual injury on 0 to 100 scale (0 no effect, 100 complete control), approx. 10 d, read-out: Foxtail, Giant plant response rating
[24] = postemergence, visual injury on 0 to 100 scale (0 no effect, 100 complete control), approx. 10 d, read-out: Ragweed plant response rating

Compound | pest or weed control at 250 g/ha (rice (Oryra sativa)) | pest or weed control at 250 g/ha [1] | pest or weed control at 250 g/ha [2] | pest or weed control at 250 g/ha [3] | pest or weed control at 125 g/ha [4] | pest or weed control at 500 g/ha [4] | pest or weed control at 125 g/ha [5] | pest or weed control at 500 g/ha [5] | pest or weed control at 125 g/ha (Kochia (Kochia scoparia)) | pest or weed control at 500 g/ha (Kochia (Kochia scoparia)) | pest or weed control at 125 g/ha [6] | pest or weed control at 500 g/ha [6] | pest or weed control at 125 g/ha [7] | pest or weed control at 500 g/ha [7] | pest or weed control at 125 g/ha [8] | pest or weed control at 500 g/ha [8] | pest or weed control at 500 g/ha [9, 14] | plant injury at 500 g/ha [10, 16] | pest or weed control at 500 g/ha [11, 18] | pest or weed control at 500 g/ha [12, 20] | further results
COc1ccc([C@H]2CN(C)C(=O)[C@@H]2C(=O)Nc2cccc(F)c2F)cc1F [Compound 1021] | 15% | 80% | 0% | 98% | 0% | 20% | 100% | 100% | 70% | 90% | 70% | 80% | 100% | 100% | 70% | 70% | 70% | 60% | 90% | 60% | pest or weed control at 125 g/ha [9, 13]: 40%; plant injury at 125 g/ha [10, 15]: 40%; pest or weed control at 125 g/ha [11, 17]: 90%; pest or weed control at 125 g/ha [12, 19]: 40%
Cc1cc([C@H]2CN(C)C(=O)[C@@H]2C(=O)Nc2cccc(F)c2F)cc(C)c1Br [Compound 1024] | 0% | 40% | 0% | 70% | 0% | 90% | 70% | 90% | 30% | 40% | 30% | 50% | 90% | 90% | 0% | 30% | 30% | 30% | 90% | 0% | pest or weed control at 125 g/ha [9, 13]: 30%; plant injury at 125 g/ha [10, 15]: 0%; pest or weed control at 125 g/ha [11, 17]: 70%; pest or weed control at 125 g/ha [12, 19]: 0%
O=C1NC[C@H](c2ccc3c(c2)OCO3)[C@H]1C(=O)Nc1ccc(F)c(F)c1F [Compound 1027] | 30% | 40% | 0% | 100% | 30% | 0% | 90% | 90% | 80% | 90% | 0% | 40% | 40% | 90% | 70% | 80% | 30% | 0% | 60% | 0% | pest or weed control at 125 g/ha [9, 21]: 0%; plant injury at 125 g/ha [10, 22]: 0%; pest or weed control at 125 g/ha [11, 23]: 20%; pest or weed control at 125 g/ha [12, 24]: 0%
CN1CC[C@H](c2ccccc2)[C@@H](C(=O)Nc2ccccc2F)C1=O [Compound 1032] | 0% | 0% | 0% | 20% | 0% | 0% | 20% | 70% | 0% | 0% | 0% | 0% | 0% | 70% | 0% | 0% | 0% | 0% | 0% | 0% | pest or weed control at 125 g/ha [9, 21]: 0%; plant injury at 125 g/ha [10, 22]: 0%; pest or weed control at 125 g/ha [11, 23]: 0%; pest or weed control at 125 g/ha [12, 24]: 0%
Cc1ccc([C@H]2CNC(=O)[C@@H]2C(=O)Nc2cccc(F)c2F)cc1C [Compound 1034] | 0% | 60% | 0% | 100% | 20% | 60% | 90% | 90% | 60% | 70% | 0% | 0% | 80% | 90% | 30% | 90% | 60% | 50% | 80% | 40% | pest or weed control at 125 g/ha [9, 21]: 0%; plant injury at 125 g/ha [10, 22]: 0%; pest or weed control at 125 g/ha [11, 23]: 20%; pest or weed control at 125 g/ha [12, 24]: 10%
